The source of these data is US9382208B1, “Negative allosteric modulators of metabotropic glutamate receptor 2” (Vanderbilt University, priority 2015, dated 2016).

Structures are written as SMILES. Read-outs that look alike come from different tables or passages of the source.

Experiment [1] has as its system group II mGlu receptors (mGlu2 and mGlu3). To be noted: cited from earlier work.
The target in experiment [2] is T1, rat mGlu2 (Rattus norvegicus, UniProt P31421).
T1 construct: expressed in transfected cells
Kind of experiment: mGlu2 Ca2+ flux assay. It is filed as cell-based. To be noted: for remaining activity at 30 µM: amplitude of response in the presence of 30 μM test compound as percentage of maximal response to glutamate, read-out: rat mGlu2 Glu max (%). The essentials:
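Gα15 HEK293 cells stably expressing rat mGlu2, Fluo-4 loaded; compound added, then glutamate at EC20 after 2.3 min and EC80 afterward, calcium flux read as F/F0. Peak amplitude around EC80 addition normalized to glutamate max; IC50 by unconstrained 4-parameter fit, top concentration 30 μM.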
(Calcium flux is commonly read through the fluorescence of an indicator in the cells.)

Experiment [3] concerns mice. The following applies: cited from earlier work.
In experiment [4] the test system is Aβ-induced neurodegeneration. To be noted: cited from earlier work.
Experiment [5] relates to mouse. To be noted: mouse TST, normal animals; cited from earlier work.
Experiment [6] concerns central mGlu2 and mGlu3 receptors. The following applies: in vivo; cited from earlier work.
The test system of experiment [7] is Helpless (H) mice. The following applies: cited from earlier work; for activity in the tail suspension test: Helpless (H) mice.
Experiment [8] has as its system C57B16/J mice. To be noted: FST; cited from earlier work.
Experiment [9] deals with rat. To be noted: rat FST, normal animals; cited from earlier work.
The test system of experiment [10] is social isolation-reared mice. To be noted: cited from earlier work.
The subject of experiment [11] is olfactory bulbectomized rats. The following applies: repeated administration for 14 days; cited from earlier work.
The conditions of experiment [12]: treatment for 7 days; cited from earlier work.
For experiment [13] the following is noted: CFS model; cited from earlier work.
[14] abbreviates: Gα15 HEK293 cells stably expressing rat mGlu2, glutamate EC80 addition, read-out: rat mGlu2 IC50.

T1 sequence (P31421 19-872): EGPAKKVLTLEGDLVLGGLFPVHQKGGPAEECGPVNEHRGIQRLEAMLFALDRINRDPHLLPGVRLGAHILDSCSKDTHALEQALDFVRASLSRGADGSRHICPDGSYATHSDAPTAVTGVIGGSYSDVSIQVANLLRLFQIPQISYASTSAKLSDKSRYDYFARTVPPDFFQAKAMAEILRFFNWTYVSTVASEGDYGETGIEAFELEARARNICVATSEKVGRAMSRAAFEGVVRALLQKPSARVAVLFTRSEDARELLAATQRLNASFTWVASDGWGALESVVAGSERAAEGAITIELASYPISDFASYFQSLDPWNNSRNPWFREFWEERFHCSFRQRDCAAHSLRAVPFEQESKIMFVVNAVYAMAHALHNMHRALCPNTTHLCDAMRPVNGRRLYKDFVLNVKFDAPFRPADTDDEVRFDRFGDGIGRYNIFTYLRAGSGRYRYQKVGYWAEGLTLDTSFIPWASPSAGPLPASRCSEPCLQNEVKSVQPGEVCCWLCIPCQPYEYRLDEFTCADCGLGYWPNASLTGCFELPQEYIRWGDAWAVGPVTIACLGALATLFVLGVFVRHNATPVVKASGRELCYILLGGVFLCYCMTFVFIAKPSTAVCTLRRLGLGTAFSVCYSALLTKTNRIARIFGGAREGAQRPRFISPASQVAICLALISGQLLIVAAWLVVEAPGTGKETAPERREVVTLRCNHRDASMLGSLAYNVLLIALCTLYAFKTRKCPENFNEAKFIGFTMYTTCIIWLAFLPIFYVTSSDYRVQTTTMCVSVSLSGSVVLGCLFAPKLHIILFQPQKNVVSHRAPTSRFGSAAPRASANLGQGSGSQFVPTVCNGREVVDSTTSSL

On to `CCCCCCCOC(=O)[C@@]1(F)[C@@H]2C[C@@H](OCc3ccc(Cl)c(Cl)c3)[C@@](N)(C(=O)O)[C@@H]21` [BCI-838], for which the “levels of monomeric and oAβ peptides in the hippocampus and cortex” value in experiment [1] (three months of treatment, two AD mouse models) is on record as “decreased”. Also, in experiment [1] (three months of treatment), the “Dutch APP transgene-associated learning and memory impairment” value is listed as “reversed”; the anxiolytic effects result was “anxiolytic effects”. Moreover, the “hippocampal progenitor cell proliferation” value in experiment [1] (wild-type and Alzheimer's diseased mice, 3 months) was “stimulated”.

As usually defined, the IC50 is the midpoint of a concentration-inhibition curve. `NC(=O)c1cn(-c2ccc(F)cc2)c2ccc(CN3CCCS(=O)(=O)CC3)cc2c1=O` [Compound 85, 6-((1,1-dioxido-1,4-thiazepan-4-yl)methyl)-1-(4-fluorophenyl)-4-oxo-1,4-dihydroquinoline-3-carboxamide]: the half-inhibitory concentration (IC50) in [2] (setting [14]) worked out at 422 ± 52 nM. For the same molecule, the remaining activity at 30 µM in [2] is 1.24 ± 0.04%.

As for `NC(=O)c1cn(-c2ccc(F)cc2)c2ccc(CN3CCC(F)(F)C3)cc2c1=O` [Compound 86, 6-((3,3-difluoropyrrolidin-1-yl)methyl)-1-(4-fluorophenyl)-4-oxo-1,4-dihydroquinoline-3-carboxamide], the IC50 in experiment [2] (setting [14]) amounted to 259 nM. For the same molecule, in experiment [2], the remaining activity at 30 µM turned out to be 0.98%.

In the case of `CN1CCN(Cc2ccc3c(c2)c(=O)c(C(N)=O)cn3-c2ccc(F)cc2)CC1` [Compound 87, 1-(4-fluorophenyl)-6-((4-methylpiperazin-1-yl)methyl)-4-oxo-1,4-dihydroquinoline-3-carboxamide], the concentration for half-maximal inhibition (IC50) in [2] (setting [14]) turned out to be 1360 nM. For the same molecule, the remaining activity at 30 µM in experiment [2] is 0.93%.

As to `C[C@H]1CN(Cc2ccc3c(c2)c(=O)c(C(N)=O)cn3-c2ccc(F)cc2)CCO1` [Compound 88, (S)-1-(4-fluorophenyl)-6-((2-methylmorpholino)methyl)-4-oxo-1,4-dihydroquinoline-3-carboxamide], in experiment [2] (setting [14]), the IC50 came out at 724 nM. Also, in experiment [2], the remaining activity at 30 µM came to 1.36%.

`C[C@@H]1CN(Cc2ccc3c(c2)c(=O)c(C(N)=O)cn3-c2ccc(F)cc2)CCO1` [Compound 89, (R)-1-(4-fluorophenyl)-6-((2-methylmorpholino)methyl)-4-oxo-1,4-dihydroquinoline-3-carboxamide]: in [2] (setting [14]), the half-maximal inhibitory concentration (IC50) was determined as 1150 nM. Moreover, in [2], the remaining activity at 30 µM is 1.08%.

As to `CC1(C)CN(Cc2ccc3c(c2)c(=O)c(C(N)=O)cn3-c2ccc(F)cc2)CCO1` [Compound 90, 6-((2,2-dimethylmorpholino)methyl)-1-(4-fluorophenyl)-4-oxo-1,4-dihydroquinoline-3-carboxamide], the IC50 in [2] (setting [14]) amounted to 142 nM. Also, in [2], the remaining activity at 30 µM is 2.01%.

Take `CN(Cc1cc(F)c2c(c1)c(=O)c(C(N)=O)cn2-c1ccc(F)cc1)C1CC(F)(F)C1` [Compound 91, 6-(((3,3-difluorocyclobutyl)(methyl)amino)methyl)-8-fluoro-1-(4-fluorophenyl)-4-oxo-1,4-dihydroquinoline-3-carboxamide]: the IC50 in experiment [2] (setting [14]) was greater than 30000 nM.

Consider `C[C@@H]1CN(Cc2cc(F)c3c(c2)c(=O)c(C(N)=O)cn3-c2ccc(F)cc2)C[C@H](C)O1` [Compound 92, 6-((cis-2,6-dimethylmorpholino)methyl)-8-fluoro-1-(4-fluorophenyl)-4-oxo-1,4-dihydroquinoline-3-carboxamide], for which, in experiment [2] (setting [14]), the IC50 came to 4410 nM. Also, the remaining activity at 30 µM in [2] was 2.23%.

Take `CC1CN(Cc2cc(F)c3c(c2)c(=O)c(C(N)=O)cn3-c2ccc(F)cc2)CCO1` (centres unmarked) [Compound 93, 8-fluoro-1-(4-fluorophenyl)-6-((2-methylmorpholino)methyl)-4-oxo-1,4-dihydroquinoline-3-carboxamide]: the IC50 in [2] (setting [14]) is 6520 nM. For the same molecule, the remaining activity at 30 µM in [2] was found to be 0.14%.

Consider `NC(=O)c1cn(-c2ccc(F)cc2)c2c(F)cc(CN3CCC(F)(F)CC3)cc2c1=O` [Compound 94, 6-((4,4-difluoropiperidin-1-yl)methyl)-8-fluoro-1-(4-fluorophenyl)-4-oxo-1,4-dihydroquinoline-3-carboxamide], for which, in [2] (setting [14]), the IC50 was determined as 1770 nM. For the same molecule, the remaining activity at 30 µM in experiment [2] was found to be 5.78%.

`NC(=O)c1cn(-c2ccc(F)cc2)c2c(F)cc(CN3CCC(F)(F)C3)cc2c1=O` [Compound 95, 6-((3,3-difluoropyrrolidin-1-yl)methyl)-8-fluoro-1-(4-fluorophenyl)-4-oxo-1,4-dihydroquinoline-3-carboxamide]: in experiment [2] (setting [14]), the IC50 is greater than 10000 nM. For the same molecule, the remaining activity at 30 µM in experiment [2] came to 31.1%.

Regarding `CN(Cc1cccnc1)c1ccc2c(c1)c(=O)c(C#N)cn2-c1ccc(F)cc1` [Compound 96, 1-(4-Fluorophenyl)-6-(methyl(pyridin-3-ylmethyl)amino)-4-oxo-1,4-dihydroquinoline-3-carbonitrile], in [2], 3160 nM corresponded to half-maximal inhibition (IC50) and the remaining activity at 30 µM is 3.44%.

Regarding `N[C@](CC1c2ccccc2Oc2ccccc21)(C(=O)O)[C@H]1C[C@@H]1C(=O)O` [LY341495], the marble-burying behavior entry in experiment [3] is “significantly reduce marble-burying behavior”. Besides, the Aβ-induced neurodegeneration entry in [4] is listed as “prevented”. Further, the antidepressant-like effects entry in experiment [5] and in experiment [9] was “Antidepressant-like effects” in each case. Further, the “hypolocomotor effect of mGlu2/3 agonist (LY379268)” value in experiment [6] is recorded as “achieved the same result”. The “activity in the tail suspension test” value in experiment [7] is “active”. In [7] (acute administration), the “antidepressant effect in helpless mice” value is on record as “potent antidepressant effect”. For the same molecule, the immobility time result in experiment [8] is given as “dose-dependently reduced”.

Regarding `CCS(=O)(=O)N(Cc1cccnc1)c1cccc(-c2ccc(C#N)cc2)c1` [LY566332], the Aβ-induced neurodegeneration result in experiment [4] was “amplified”.

Consider `N[C@]1(C(=O)O)[C@H]2[C@@H](C[C@H]1OCc1ccc(Cl)c(Cl)c1)[C@]2(F)C(=O)O` [MGS0039], for which, in [3], the marble-burying behavior entry is “reduced marble-burying behavior” and the spontaneous locomotor activity entry is recorded as “no significant change”. Further, the antidepressant-like effects result in experiment [5] is listed as “Antidepressant-like effects”. The “immobility in the FST” value in experiment [10] is “reversed the increased immobility”. Also, in [11], the “hyperactivity in the open field test” value was “attenuated the hyperactivity” and the “learning deficit in the passive avoidance test” value was “attenuated the learning deficit”. The antidepressant-like effects entry in experiment [9] is “Antidepressant-like effects”. The “number of escape failures” value in experiment [12] is “significantly reduced”. Further, in experiment [13], the freezing behavior result was “significantly decreased”.

With `Cc1cc(-c2cccc(C3=Nc4cc(C)c(C(F)(F)F)cc4NC(=O)C3)c2)cc(C)n1` [RO4491533], the “hypolocomotor effect of mGlu2/3 agonist (LY379268)” value in experiment [6] is on record as “reversed the hypolocomotor effect”. In experiment [7], the “activity in the tail suspension test” value is “active”. For the same molecule, in experiment [8], the immobility time result is “dose-dependently reduced”.

Turning to `CN1C(=O)CN=C(c2ccccc2)c2cc(Cl)ccc21` [diazepam], the freezing behavior entry in experiment [13] is listed as “significantly decreased”.

Consider `CNCCC(Oc1ccc(C(F)(F)F)cc1)c1ccccc1` (centres unmarked) [fluoxetine], for which, in experiment [7] (chronic (21 days) treatment), the “antidepressant effect in helpless mice” value is given as “full antidepressant effect”.
